Assay results published in patent US20230303483A1, “USE OF STROBILURIN TYPE COMPOUNDS FOR COMBATING PHYTOPATHOGENIC FUNGI CONTAINING AN AMINO ACID SUBSTITUTION F129L IN THE MITOCHONDRIAL CYTOCHROME B PROTEIN CONFERRING RESISTANCE TO QO […]” (BASF SE, priority 2020, published 2023).

Tests used:
[1] = tested on: Phakopsora pachyrhizi (strain containing the amino acid substitution F129L in the mitochondrial cytochrome b protein); assay: Use example 2: protective control of soybean rust on soybeans (PHAKPA P6), inoculation six days after spraying; type: in vivo; conditions: % diseased leaf area on soybean, 16 ppm spray, inoculation six days after treatment, untreated controls usually >85 %
Protocol: (§1) The compound was dissolved in a mixture of acetone and/or dimethylsulfoxide and the wetting agent/emulsifier Wettol, which is based on ethoxylated alkylphenoles, in a ratio (volume) solvent-emulsifier of 99 to 1 to give a total volume of 5 ml. Subsequently, water was added to total volume of 100 ml. This stock solution was then diluted with the described solvent-emulsifier-water mixture to the final concentration given in the table below.
Use example 2. Protective control of soybean rust on soybeans caused by Phakopsora pachyrhizi (PHAKPA P6)
(§2) Leaves of potted soybean seedlings were sprayed to run-off with the previously described spray solution, containing the concentration of active ingredient as described below. The plants were allowed to air-dry. The trial plants were cultivated for six days in a greenhouse chamber at 23-27° C. and a relative humidity between 60 and 80 %. Then the plants were inoculated with spores of Phakopsora pachyrhizi. The strain used contains the amino acid substitution F129L in the mitochondrial cytochrome b protein conferring resistance to Qo inhibitors. To ensure the success the artificial inoculation, the plants were transferred to a humid chamber with a relative humidity of about 95 % and 23 to 27° C. for 24 hr. The trial plants were cultivated for up to 14 days in a greenhouse chamber at 23 to 27° C. and a relative humidity between 60 and 80 %. The extent of fungal attack on the leaves was visually assessed as % diseased leaf area, the disease level of untreated controls was usually higher than 85 %.
(§3) All test results below are given for the control of phytopathogenic fungi containing the amino acid substitution F129L in the mitochondrial cytochrome b protein conferring resistance to Qo inhibitors.

[2] = tested on: Phakopsora pachyrhizi (strain containing the amino acid substitution F129L in the mitochondrial cytochrome b protein); assay: Use example 1: protective control of soybean rust on soybeans (PHAKPA P2), inoculation 2 days after spraying; type: in vivo; conditions: % diseased leaf area on soybean, 16 ppm spray, inoculation 2 days after treatment, untreated controls usually >85 %
Protocol: as §1
Use example 1. Protective control of soybean rust on soybeans caused by Phakopsora pachyrhizi (PHAKPA P2)
as §2, with “active ingredient or their mixture as described” for “active ingredient as described”, “cultivated for 2 days in” for “cultivated for six days in”, “% and 20 to 24°” for “% and 23 to 27°”, “20 to 24° C. for” for “23 to 27° C. for”
as §3

| SMILES | PHAKPA Disease level (%) P6 at 16 ppm [1] [%] | PHAKPA Disease level (%) P2 at 16 ppm [2] [%] |
| --- | --- | --- |
| CO/N=C(/C(=O)OC)c1cccc(C)c1CO/N=C(\C)C#Cc1ccccc1F [Example 61] | 8 | 8 |
| CNC(=O)/C(=N/OC)c1ccccc1CO/N=C(\C)C#Cc1ccccc1F [Example 62] | 2 | 2 |
| CNC(=O)/C(=N/OC)c1cccc(C)c1CO/N=C(\C)C#Cc1ccccc1F [Example 63] | 0 | 0 |
| CO/N=C(/C(=O)OC)c1cccc(C)c1CO/N=C(\C)C#Cc1ccc(C(F)(F)F)cc1 [Example 64] | 60 | 43 |
| CO/N=C(/C(=O)OC)c1ccccc1CO/N=C(\C)C#Cc1ccc(C(F)(F)F)cc1 [Example 65] | 70 | 80 |
| CO/N=C(/C(=O)OC)c1cccc(C)c1CO/N=C(\C)C#Cc1ccccc1C(F)(F)F [Example 66] | 30 | 17 |
| CO/N=C(/C(=O)OC)c1ccccc1CO/N=C(\C)C#Cc1ccccc1C(F)(F)F [Example 67] | 60 | 50 |
| CNC(=O)/C(=N/OC)c1cccc(C)c1CO/N=C(\C)C#Cc1ccccc1C(F)(F)F [Example 68] | 1 | 0 |
| CNC(=O)/C(=N/OC)c1ccccc1CO/N=C(\C)C#Cc1ccccc1C(F)(F)F [Example 69] | 2 | 1 |
| CO/C=C(/C(=O)OC)c1cccc(C)c1CO/N=C(\C)C#Cc1ccc(F)cc1 [Example 70] | 0 | 0 |
| CO/N=C(/C(=O)OC)c1ccccc1CO/N=C(\C)C#Cc1cccc(Cl)c1 [Example 71] | 17 | 20 |
| CO/N=C(/C(=O)OC)c1cccc(C)c1CO/N=C(\C)C#Cc1cccc(Cl)c1 [Example 72] | 8 | 7 |
| CNC(=O)/C(=N/OC)c1ccccc1CO/N=C(\C)C#Cc1cccc(Cl)c1 [Example 73] | 0 | 1 |
| CO/N=C(/C(=O)OC)c1ccccc1CO/N=C(\C)C#Cc1ccccc1Cl [Example 74] | 47 | 42 |
| CO/N=C(/C(=O)OC)c1cccc(C)c1CO/N=C(\C)C#Cc1ccccc1Cl [Example 75] | 40 | 22 |
| CNC(=O)/C(=N/OC)c1ccccc1CO/N=C(\C)C#Cc1ccccc1Cl [Example 76] | 4 | 3 |
| CNC(=O)/C(=N/OC)c1cccc(C)c1CO/N=C(\C)C#Cc1cccc(Cl)c1 [Example 77] | 0 | 0 |
| CNC(=O)/C(=N/OC)c1cccc(C)c1CO/N=C(\C)C#Cc1ccccc1Cl [Example 78] | 0 | 0 |
| CNC(=O)/C(=N/OC)c1ccccc1CO/N=C(\C)C#Cc1ccc(Cl)cc1F [Example 83] | 22 | 17 |
| CNC(=O)/C(=N/OC)c1ccccc1CO/N=C(\C)C#Cc1ccc2c(c1)OC(F)(F)O2 [Example 84] | 67 | 77 |

| SMILES | PHAKPA Disease level (%) P6 at 16 ppm [1] [%] | PHAKPA Disease level (%) P2 at 16 ppm [2] [%] |
| --- | --- | --- |
| CO/N=C(/C(=O)OC)c1ccccc1CO/N=C(\C)C#Cc1ccc2c(c1)OC(F)(F)O2 [Example 85] | 83 | 100 |
| CNC(=O)/C(=N/OC)c1ccccc1CO/N=C(\C)C#Cc1ccc(Cl)cc1C1CC1 [Example 86] | 18 | 5 |
| CNC(=O)/C(=N/OC)c1ccccc1CO/N=C(\C)C#Cc1ccc(OC(C)C)cc1 [Example 88] | 60 | 77 |
| CO/N=C(/C(=O)OC)c1ccccc1CO/N=C(\C)C#Cc1ccc(Cl)cc1F [Example 90] | 57 | 30 |
| CO/N=C(/C(=O)OC)c1ccccc1CO/N=C(\C)C#Cc1ccc(Cl)cc1C1CC1 [Example 91] | 43 | 53 |
| CNC(=O)/C(=N/OC)c1ccccc1CO/N=C(\C)C#Cc1ccc(C2CC2)cc1 [Example 92] | 57 | 60 |
| CO/N=C(/C(=O)OC)c1ccccc1CO/N=C(\C)C#Cc1c(Cl)cccc1Cl [Example 93] | 97 | 87 |
| CO/N=C(/C(=O)OC)c1ccccc1CO/N=C(\C)C#Cc1ccc(Cl)cc1C(F)(F)F [Example 94] | 47 | 53 |
| CO/N=C(/C(=O)OC)c1ccccc1CO/N=C(\C)C#Cc1ccc(OCC(F)(F)F)cc1 [Example 98] | 93 | 73 |
| CNC(=O)/C(=N/OC)c1ccccc1CO/N=C(\C)C#Cc1ccc(Cl)cc1C(F)(F)F [Example 99] | 0 | 0 |
| CO/N=C(/C(=O)OC)c1ccccc1CO/N=C(\C)C#Cc1ccc(Oc2ccc(F)cc2)cc1 [Example 100] | 77 | 77 |
| CNC(=O)/C(=N/OC)c1ccccc1CO/N=C(\C)C#Cc1cccc2c1OC(F)(F)O2 [Example 101] | 2 | 4 |
| CO/N=C(/C(=O)OC)c1ccccc1CO/N=C(\C)C#Cc1ccc(OC2CC2)cc1 [Example 102] | 63 | 80 |
| CO/N=C(/C(=O)OC)c1ccccc1CO/N=C(\C)C#Cc1cccc2c1OC(F)(F)O2 [Example 103] | 22 | 28 |
| CNC(=O)/C(=N/OC)c1ccccc1CO/N=C(\C)C#Cc1ccc(OCC(F)(F)F)cc1 [Example 104] | 32 | 53 |
| CNC(=O)/C(=N/OC)c1ccccc1CO/N=C(\C)C#Cc1ccc(OC2CC2)cc1 [Example 106] | 13 | 23 |
| CNC(=O)/C(=N/OC)c1ccccc1CO/N=C(\C)C#Cc1c(Cl)cccc1Cl [Example 107] | 15 | 27 |
| CO/N=C(/C(=O)OC)c1ccccc1CO/N=C(\C)C#Cc1c(C2CC2)cccc1C(F)(F)F [Example 108] | 87 | 90 |
| CO/N=C(/C(=O)OC)c1ccccc1CO/N=C(\C)C#Cc1ccc(Cl)cc1C(C)C [Example 109] | 12 | 11 |
| CNC(=O)/C(=N/OC)c1ccccc1CO/N=C(\C)C#Cc1ccc(Cl)cc1C(C)C [Example 110] | 2 | 0 |
